Earlier results in the CATMoS acute toxicity set (Mansouri et al. 2021).
“And” between values parts separate entries of the source, which are not always exact repeats. Identical values can stand only once.

Assay: rat acute oral toxicity
Conditions: in vivo
Text: […]The data set underlying the modeling effort for this project was initially compiled by NICEATM and U.S. EPA’s CCTE. Briefly, LD50 data were collected from rat acute oral systemic toxicity tests, including limit tests, ranges/confidence intervals, and discrete LD50 values. The full data set included 21,200 LD50 entries for 15,688 substances. […] Data were reviewed to ensure that LD50 values with obvious errors in the extracted data such as unit conversion errors (e.g., comma and decimal separator misplacements) were either fixed or removed. After this review, 16,209 LD50 values remained. Many of the chemicals represented had multiple LD50 entries, requiring that a single representative value per Chemical Abstracts Service Registry Number (CASRN) identifier be defined to facilitate modeling efforts. Based on ATWG feedback and to define the representative LD50 as a protective value while accounting for the distribution across multiple LD50s, the median of the lowest quartile was computed using only discrete LD50 values (omitting limit test data and range and confidence interval data). A detailed summary of the data compilation is available online on the NICEATM webpage dedicated to the collaborative modeling project (NTP 2020).
[…][…] For categorical designations, limit test and range/confidence interval LD50 data were integrated wherever possible. As such, the number of chemicals with end point values/calls varies across the modeling end points (Table 3) based on whether chemicals had representative LD50 values and/or other data. If a chemical had both, the representative value was used to determine categorical calls rather than limit test data. Some data were useable only for certain end points and categories depending on the thresholds. For example, ranges that spanned multiple hazard categories were considered only for the binary (very toxic/nontoxic) end points and omitted from rendering a determination for hazard category assignment.
[…]The final data set comprising 11,992 chemicals was split into training and evaluation sets […], respectively. This process was performed semirandomly by ordering chemicals based on the five end points (categorical and continuous LD50 values) and partitioning every fourth record into the evaluation set accordingly. This approach was taken to ensure an equivalent distribution of the LD50 values and the different hazard categories between the training and the evaluation sets without supervised sampling of the chemicals based on structures (Figure 1A). The sources of the chemical structures were also kept equivalent between the two sets, with chemical structures obtained from DSSTox, being the highest quality, representing over 75% of each set (Figure 1B).

Compound	LD50
CCC(C)c1ccc(Cl)c(OC(=O)NC)c1 (centres undefined)	50 mg/kg
Cc1ccc(C(C)(C)C)cc1	1560 mg/kg
CC(C)(C)NC(=O)[C@H]1CC[C@H]2[C@@H]3CC[C@H]4NC(=O)C=C[C@]4(C)[C@H]3CC[C@]12C	418 mg/kg
CC(CC1CCCCC1)NCCC(c1ccccc1)c1ccccc1 (centres undefined)	1550 mg/kg
CCCCNCCO	1150 mg/kg
CCOC(=S)SSSSC(=S)OCC	275 mg/kg
C[C@H](N)[C@H](O)c1ccccc1	1540 mg/kg
CS(=O)C(C)(C)C(N)=O (centres undefined)	16000 mg/kg
COc1ccc(/C=C/C(=O)Nc2ccccc2C(=O)O)cc1OC	1100 mg/kg
c1ccc2c3c([nH]c2c1)CCCC3	2650 mg/kg
Fc1c(F)c(F)c2[nH]c(C(F)(F)F)nc2c1F	3.33 mg/kg
Cc1ccc(S(=O)(=O)N=C=O)cc1	2230 mg/kg
CCN(C(=O)c1cc(Cl)nc(Cl)c1)C1CC1	78 mg/kg
C=C(Cl)C(Cl)CCl (centres undefined)	341 mg/kg
O=C(O)COc1ccc(Cl)cc1Cl	405 mg/kg and 850 mg/kg
COP(=S)(OC)Oc1cc(C)n(C)c(=O)c1	0.812 mg/kg
CC(C)CCCCCCCCCCOC(=O)c1ccccc1C(=O)OCCCCCCCCCCC(C)C	31400 mg/kg
CC(C)CCCCCCCCCCOCCCN	300 mg/kg
Nc1ccc(-c2ccc(N)c(Cl)c2)cc1Cl	3820 mg/kg
S=c1[nH]cnc2[nH]cnc12	277 mg/kg
CCOc1ccc(NCCC#N)cc1	4600 mg/kg
Cc1cc(-n2c(C)nc3ccccc3c2=O)cc(C)c1O	230 mg/kg

Compound	LD50
CCC(O)OC(C)(C)C (centres undefined)	2520 mg/kg
NC(=O)N/N=C/c1ccc([N+](=O)[O-])o1	590 mg/kg
COc1ccccc1N1CCN(CCC(=O)c2ccc(N3CCOCC3)cc2)CC1	400 mg/kg
CCO[Si](C)(C)OCC	9280 mg/kg
CC(C)=CCC(=O)c1ccoc1	25 mg/kg
C[N+]1(C)[C@@H]2CC[C@H]1C[C@@H](OC(=O)C(O)c1ccccc1)C2 (some centres undefined)	1200 mg/kg
CCN(CC)C(=O)N[C@H]1C[C@@H]2c3cccc4[nH]cc(c34)C[C@H]2N(C)C1	100 mg/kg
OC(CN1CCCCC1)c1cc(-c2ccccc2)on1 (centres undefined)	1980 mg/kg
CC(C)c1s[nH]c2nc(C(C)(C)C)nc(=O)c1-2	10200 mg/kg
NC(C(=O)O)c1ccccc1 (centres undefined)	3030 mg/kg
O=C=Nc1cccc(Cl)c1	4200 mg/kg
Nc1ccc(-c2ccccc2N)cc1	311 mg/kg
O=C(O)C(F)(F)C(F)(F)C(F)(F)F	2140 mg/kg
CNCCCC1c2ccccc2C=Cc2ccccc21	299 mg/kg and 240 mg/kg
CC1OCC2C(CO1)C1(Cl)C(Cl)=C(Cl)C2(Cl)C1(Cl)Cl (centres undefined)	120 mg/kg
N#CCCCCCN	820 mg/kg
CC(C)CC(C)OC(=O)/C=C\C(=O)OC(C)CC(C)C (centres undefined)	7340 mg/kg
COP(=O)(OC)Oc1ccc(S(C)(=O)=O)c(C)c1	30 mg/kg
Nc1ccc2cc(S(=O)(=O)O)ccc2c1CS(=O)(=O)O	9200 mg/kg
COc1cc(-c2ccc(N)c(OC)c2)ccc1N	1920 mg/kg
CC(=O)OC(C)OC(=O)C(C)c1ccc(-c2ccccc2)c(F)c1 (centres undefined)	66 mg/kg
CCc1oc2ccccc2c1C(=O)c1cc(Br)c(O)c(Br)c1	248 mg/kg

Compound	LD50
OCC(Br)CBr (centres undefined)	681 mg/kg
CCCCCCCCCCCCCCCCOC(=O)C1CC1	12200 mg/kg
C=CCSC(C)C1(CC=C)C(=O)N=C(O)NC1=O (centres undefined)	346 mg/kg
CCCC(C)(Oc1ccc(Cc2ccc(Cl)cc2)cc1)C(=O)OCc1cccnc1 (centres undefined)	10000 mg/kg
O=c1[nH]c2[nH]cnc(=O)c2[nH]1	1760 mg/kg
CCCCOCCOC(=O)CCCCC(=O)OCCOCCCC	1100 mg/kg
CC(C(=O)O)c1ccc2c(c1)[nH]c1ccc(Cl)cc12 (centres undefined)	74 mg/kg
CC(C)CC(C)CC(=O)O (centres undefined)	900 mg/kg
CNC(=O)Oc1cc(C)c(SC)c(C)c1	20 mg/kg
C=C(C)C(=O)OCCCl	200 mg/kg
CCCCOCCOCCOCCO	5300 mg/kg
Cc1cccc(N(CCO)CCO)c1	3100 mg/kg
O=C(Nc1ccc(Cl)cc1)c1cc(Cl)cc(-c2ccc(Cl)cc2)c1O	2810 mg/kg
CCc1cnc(C)cn1	900 mg/kg
COC=CC=C(C#N)C#N	200 mg/kg
CS(=O)(=O)OCCN(CCOS(C)(=O)=O)S(C)(=O)=O	300 mg/kg
CC1(COCC2(C)CO2)CO1 (centres undefined)	1680 mg/kg
CCCCC(CC)Cc1ccccc1O (centres undefined)	2460 mg/kg
Cc1cccc(/N=N\N(C)C)c1	300 mg/kg
N#CC(O)c1cccc(Oc2ccccc2)c1 (centres undefined)	800 mg/kg
Oc1cc2c3c(c1)c1cc4c(cc1c[n+]3CC2)OCO4	90 mg/kg
C=CN	1850 mg/kg

Compound	LD50
O=c1ncc2[nH]c(=O)[nH]c2[nH]1	1820 mg/kg
CC[N+](CC)(CCNC(=O)C(=O)NCC[N+](CC)(CC)Cc1ccccc1Cl)Cc1ccccc1Cl	18.5 mg/kg
CC(C)=Cc1ccc(C(C)C(=O)O)cc1 (centres undefined)	1300 mg/kg
CCCCCCCCCc1ccc(C)cc1O	4000 mg/kg
CC(=O)Nc1ccc2c(c1)OCO2	1000 mg/kg
CCCCCCCCCCCCCC[N+](C)(C)C	3900 mg/kg
CCCN=C(N)C(OCC)c1ccccc1 (centres undefined)	530 mg/kg
COP(=S)(OC)SCOC(C)=O	93 mg/kg
CC(CC(C)(C)O)OCCC#N (centres undefined)	3200 mg/kg
Oc1ccc(Nc2ccc3ccccc3c2)cc1	5200 mg/kg
C#CCON=CC1=CCCNC1	80 mg/kg
O=C(C(Cl)Cl)C(Cl)(Cl)Cl	200 mg/kg
NC(=O)CCCCC1CCSS1 (centres undefined)	1980 mg/kg
C#CC(=O)O	100 mg/kg
O=C(O)Cc1ccc(-c2ccccc2)cc1	164 mg/kg
O=C(C(F)(F)F)C(F)(F)F	190 mg/kg and 191 mg/kg
O=S(=O)(c1ccccc1)c1ccccc1	300 mg/kg
CC1(C)Cc2cccc(OC(=O)NCSc3ccc(Cl)cc3)c2O1	25 mg/kg
CCCN(CCC)C(=O)CN(CC)P(=S)(OCC)OCC	2080 mg/kg
O=S(=O)(F)C(F)(F)C(F)(F)C(F)(F)C(F)(F)C(F)(F)C(F)(F)C(F)(F)C(F)(F)F	154 mg/kg
CCCCCCCc1ccccc1O	2750 mg/kg
CN(C)C1CCc2ccccc2C(Oc2ccc([N+](=O)[O-])cc2)C1 (centres undefined)	534 mg/kg

Compound	LD50
C[C@H](CN1CCOCC1)C(C(=O)N1CCCC1)(c1ccccc1)c1ccccc1	71.8 mg/kg
COC(=O)CCC[N+](C)(C)C	478 mg/kg
CCCCSc1nc2ccccc2s1	1270 mg/kg
CCCCCCCCOC(C[n+]1ccccc1)c1ccc(C2CCCCC2)cc1 (centres undefined)	250 mg/kg
CCOc1ccc(NC(=O)C(N=Nc2ccc(-c3ccc(N=NC(C(C)=O)C(=O)Nc4ccc(OCC)cc4)c(Cl)c3)cc2Cl)C(C)=O)cc1 (centres undefined)	2230 mg/kg
CCOC(C1=NCC(C)(C)CN1)c1ccc(OC)cc1 (centres undefined)	625 mg/kg
N#Cc1cc(Cl)c2nc(C(F)(F)F)[nH]c2c1	2.4 mg/kg
COC(=O)C(C)c1ccc(-c2ccsc2)cc1 (centres undefined)	2330 mg/kg
CC=CC=CC#N	712 mg/kg
CCOC(=O)Cc1ccccc1	3300 mg/kg
C=CCN1CC[C@]23CCCC[C@H]2[C@H]1Cc1ccc(O)cc13	949 mg/kg
CCNc1nc(NC(C)C)nc(OC)n1	1460 mg/kg
NC(CO)(CO)CO	5900 mg/kg
Cc1cccs1	3200 mg/kg
CCC(C)C(CN(C)C)c1ccc(Cl)cc1Cl (centres undefined)	567 mg/kg
CN(C)C=C1C(=O)N(c2ccccc2)N=C1c1ccccc1	890 mg/kg
Cc1ncc(CSSCc2cnc(C)c(O)c2CCl)c(CCl)c1O	4300 mg/kg
CCCN(CCC)c1c([N+](=O)[O-])cc(C)cc1[N+](=O)[O-]	3600 mg/kg
CCCCCCc1ccc(O)cc1O	550 mg/kg
CNC(=O)Oc1cc(C)c(S(C)=O)c(C)c1 (centres undefined)	42 mg/kg
Cc1cc([N+](=O)[O-])ccc1S(=O)(=O)NCCO	4470 mg/kg
